Source: paper PMC7026418, “The kinase polypharmacology landscape of clinical PARP inhibitors” (Scientific Reports, 2020)
Like-named read-outs stand apart in the source and are kept apart here.

Key:
Assay in all cases: biochemical
Design in all cases: DiscoveRx KINOMEscan active site-directed competition binding; percent of control kinase bound to immobilised ligand
CLK3 = CLK3 (Homo sapiens, UniProt P49761)
CDK4 = CDK4 (Homo sapiens, UniProt P11802)
MYLK4 = biological target: T1, MYLK4 (Homo sapiens, UniProt Q86YV6)
T1 sequence (Q86YV6 1-388): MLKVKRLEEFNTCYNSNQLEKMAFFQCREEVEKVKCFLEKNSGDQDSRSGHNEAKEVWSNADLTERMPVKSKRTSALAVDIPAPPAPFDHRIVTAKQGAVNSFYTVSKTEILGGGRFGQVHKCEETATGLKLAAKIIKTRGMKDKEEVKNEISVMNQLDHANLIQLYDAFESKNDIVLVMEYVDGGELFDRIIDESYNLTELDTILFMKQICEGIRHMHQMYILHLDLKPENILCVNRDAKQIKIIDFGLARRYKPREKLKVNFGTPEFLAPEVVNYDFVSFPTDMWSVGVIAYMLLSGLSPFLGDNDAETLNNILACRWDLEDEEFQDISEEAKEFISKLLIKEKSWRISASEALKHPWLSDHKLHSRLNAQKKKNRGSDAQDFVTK

PCTK3 = biological target: T2, PCTK3 (Homo sapiens, UniProt Q07002)
T2 construct: gene CDK18

ADCK4 = biological target: T3, ADCK4 (Homo sapiens, UniProt Q96D53)
T3 construct: gene COQ8B
T3 sequence (Q96D53 1-544): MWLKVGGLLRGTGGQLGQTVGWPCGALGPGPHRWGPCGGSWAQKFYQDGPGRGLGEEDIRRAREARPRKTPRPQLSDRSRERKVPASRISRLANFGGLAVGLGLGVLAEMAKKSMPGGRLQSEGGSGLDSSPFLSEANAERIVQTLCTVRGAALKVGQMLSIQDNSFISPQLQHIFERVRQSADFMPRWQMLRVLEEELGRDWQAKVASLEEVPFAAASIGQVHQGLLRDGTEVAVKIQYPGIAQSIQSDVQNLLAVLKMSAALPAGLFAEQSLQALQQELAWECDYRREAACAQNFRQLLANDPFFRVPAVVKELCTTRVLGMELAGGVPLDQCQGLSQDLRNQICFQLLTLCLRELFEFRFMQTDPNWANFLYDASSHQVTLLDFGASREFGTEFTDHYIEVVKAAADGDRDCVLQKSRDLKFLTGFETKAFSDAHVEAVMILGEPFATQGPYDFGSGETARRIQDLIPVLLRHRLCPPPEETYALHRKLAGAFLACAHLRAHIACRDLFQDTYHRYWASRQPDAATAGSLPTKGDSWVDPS

HIPK1 = HIPK1 (Homo sapiens, UniProt Q86Z02)
TRPM6 = TRPM6 (Homo sapiens, UniProt Q9BX84)
FYN = FYN (Homo sapiens, UniProt P06241)
CAMK2D = CAMK2D (Homo sapiens, UniProt Q13557)
PRKG1 = biological target: T4, PRKG1 (Homo sapiens, UniProt Q13976)
T4 sequence (Q13976 1-671): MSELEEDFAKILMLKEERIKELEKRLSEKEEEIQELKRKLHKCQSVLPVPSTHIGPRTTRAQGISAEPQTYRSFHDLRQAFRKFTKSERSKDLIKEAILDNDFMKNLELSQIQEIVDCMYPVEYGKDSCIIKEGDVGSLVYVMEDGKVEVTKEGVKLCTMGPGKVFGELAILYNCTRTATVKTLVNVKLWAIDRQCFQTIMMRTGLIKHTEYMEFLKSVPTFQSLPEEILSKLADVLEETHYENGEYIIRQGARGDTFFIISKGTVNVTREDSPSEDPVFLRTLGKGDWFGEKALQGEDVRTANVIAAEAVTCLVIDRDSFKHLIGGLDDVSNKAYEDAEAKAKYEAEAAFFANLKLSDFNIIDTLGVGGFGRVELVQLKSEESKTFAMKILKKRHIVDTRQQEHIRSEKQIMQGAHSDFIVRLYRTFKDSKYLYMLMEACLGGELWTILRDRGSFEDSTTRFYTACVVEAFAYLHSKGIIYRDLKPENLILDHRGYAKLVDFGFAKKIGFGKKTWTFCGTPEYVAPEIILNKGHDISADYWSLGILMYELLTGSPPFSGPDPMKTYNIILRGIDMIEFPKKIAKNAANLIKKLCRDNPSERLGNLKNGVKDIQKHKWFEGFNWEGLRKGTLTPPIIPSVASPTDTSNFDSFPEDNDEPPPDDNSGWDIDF

[1] = read-out: Talazoparib (BMN 673) / %Ctrl @ 10000nM
[2] = read-out: Olaparib / %Ctrl @ 10000nM
[3] = read-out: Rucaparib / %Ctrl @ 10000nM, binding competition, % of control
[4] = read-out: Niraparib (MK-4827) / %Ctrl @ 10000nM

Chain of CDK4 (P11802 whole entry): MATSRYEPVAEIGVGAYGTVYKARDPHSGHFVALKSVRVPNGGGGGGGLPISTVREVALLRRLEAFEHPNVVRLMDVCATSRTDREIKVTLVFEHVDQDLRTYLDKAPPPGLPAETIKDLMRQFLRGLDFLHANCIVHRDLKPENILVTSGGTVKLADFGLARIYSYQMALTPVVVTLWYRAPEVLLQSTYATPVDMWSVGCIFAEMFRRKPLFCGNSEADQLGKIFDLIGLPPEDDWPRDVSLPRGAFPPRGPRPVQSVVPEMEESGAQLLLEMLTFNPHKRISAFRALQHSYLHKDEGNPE
Chain of CAMK2D (Q13557 whole entry): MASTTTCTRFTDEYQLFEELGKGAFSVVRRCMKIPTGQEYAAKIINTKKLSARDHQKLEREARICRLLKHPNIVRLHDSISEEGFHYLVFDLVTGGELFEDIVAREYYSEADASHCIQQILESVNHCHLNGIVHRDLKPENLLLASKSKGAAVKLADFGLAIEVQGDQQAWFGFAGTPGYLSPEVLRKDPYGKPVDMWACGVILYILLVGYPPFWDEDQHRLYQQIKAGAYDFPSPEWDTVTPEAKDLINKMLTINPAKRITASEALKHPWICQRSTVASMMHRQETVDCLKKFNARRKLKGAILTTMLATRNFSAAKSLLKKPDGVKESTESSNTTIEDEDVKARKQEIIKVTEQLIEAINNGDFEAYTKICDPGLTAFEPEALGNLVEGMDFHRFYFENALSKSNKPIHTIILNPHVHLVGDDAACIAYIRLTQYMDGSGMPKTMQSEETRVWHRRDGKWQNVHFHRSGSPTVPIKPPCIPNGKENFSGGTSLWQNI
Chain of HIPK1 (Q86Z02 whole entry): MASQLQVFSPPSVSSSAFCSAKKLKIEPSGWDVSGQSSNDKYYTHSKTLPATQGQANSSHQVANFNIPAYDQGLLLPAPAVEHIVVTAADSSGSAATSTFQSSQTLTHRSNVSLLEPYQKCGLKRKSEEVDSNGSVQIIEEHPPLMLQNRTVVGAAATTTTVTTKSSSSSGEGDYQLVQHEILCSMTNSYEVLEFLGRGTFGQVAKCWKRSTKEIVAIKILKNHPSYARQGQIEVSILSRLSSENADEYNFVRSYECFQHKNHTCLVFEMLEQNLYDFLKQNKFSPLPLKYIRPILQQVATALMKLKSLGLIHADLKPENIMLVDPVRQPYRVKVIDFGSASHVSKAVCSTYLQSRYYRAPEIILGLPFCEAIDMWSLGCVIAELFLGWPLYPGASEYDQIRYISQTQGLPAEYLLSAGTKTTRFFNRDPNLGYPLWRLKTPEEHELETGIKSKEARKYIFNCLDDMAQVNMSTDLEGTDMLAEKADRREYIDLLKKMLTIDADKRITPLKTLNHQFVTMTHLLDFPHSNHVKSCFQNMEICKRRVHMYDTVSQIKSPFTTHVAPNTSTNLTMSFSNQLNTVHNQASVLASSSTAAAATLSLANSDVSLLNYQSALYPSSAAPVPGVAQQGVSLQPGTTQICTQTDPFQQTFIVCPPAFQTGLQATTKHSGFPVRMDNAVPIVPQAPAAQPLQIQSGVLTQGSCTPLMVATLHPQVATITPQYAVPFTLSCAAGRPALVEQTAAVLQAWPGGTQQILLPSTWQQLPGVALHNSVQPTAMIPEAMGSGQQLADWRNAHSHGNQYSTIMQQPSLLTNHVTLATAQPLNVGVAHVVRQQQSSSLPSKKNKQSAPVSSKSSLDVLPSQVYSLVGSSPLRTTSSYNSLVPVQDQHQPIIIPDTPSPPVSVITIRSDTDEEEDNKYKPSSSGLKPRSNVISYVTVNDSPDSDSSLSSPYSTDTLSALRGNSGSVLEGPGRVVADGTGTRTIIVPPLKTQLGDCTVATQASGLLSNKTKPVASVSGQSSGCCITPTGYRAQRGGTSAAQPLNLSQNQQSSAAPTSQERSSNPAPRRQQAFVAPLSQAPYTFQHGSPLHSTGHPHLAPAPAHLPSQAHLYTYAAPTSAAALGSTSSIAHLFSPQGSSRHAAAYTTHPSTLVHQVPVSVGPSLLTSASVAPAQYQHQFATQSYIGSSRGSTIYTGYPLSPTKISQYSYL
Chain of FYN (P06241 whole entry): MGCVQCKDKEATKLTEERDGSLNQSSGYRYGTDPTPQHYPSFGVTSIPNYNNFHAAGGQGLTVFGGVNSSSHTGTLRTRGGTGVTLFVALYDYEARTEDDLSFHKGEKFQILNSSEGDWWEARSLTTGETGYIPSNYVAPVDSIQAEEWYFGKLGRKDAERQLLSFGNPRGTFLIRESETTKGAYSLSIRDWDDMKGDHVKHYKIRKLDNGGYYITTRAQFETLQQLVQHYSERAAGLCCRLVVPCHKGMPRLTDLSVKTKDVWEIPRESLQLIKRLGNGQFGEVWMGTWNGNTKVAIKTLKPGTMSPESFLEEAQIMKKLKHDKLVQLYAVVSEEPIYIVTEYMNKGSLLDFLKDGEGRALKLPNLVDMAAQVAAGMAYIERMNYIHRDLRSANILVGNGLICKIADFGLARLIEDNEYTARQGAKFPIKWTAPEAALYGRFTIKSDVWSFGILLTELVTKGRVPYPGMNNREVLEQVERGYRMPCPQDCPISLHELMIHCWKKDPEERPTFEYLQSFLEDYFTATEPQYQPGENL
Chain of CLK3 (P49761 whole entry): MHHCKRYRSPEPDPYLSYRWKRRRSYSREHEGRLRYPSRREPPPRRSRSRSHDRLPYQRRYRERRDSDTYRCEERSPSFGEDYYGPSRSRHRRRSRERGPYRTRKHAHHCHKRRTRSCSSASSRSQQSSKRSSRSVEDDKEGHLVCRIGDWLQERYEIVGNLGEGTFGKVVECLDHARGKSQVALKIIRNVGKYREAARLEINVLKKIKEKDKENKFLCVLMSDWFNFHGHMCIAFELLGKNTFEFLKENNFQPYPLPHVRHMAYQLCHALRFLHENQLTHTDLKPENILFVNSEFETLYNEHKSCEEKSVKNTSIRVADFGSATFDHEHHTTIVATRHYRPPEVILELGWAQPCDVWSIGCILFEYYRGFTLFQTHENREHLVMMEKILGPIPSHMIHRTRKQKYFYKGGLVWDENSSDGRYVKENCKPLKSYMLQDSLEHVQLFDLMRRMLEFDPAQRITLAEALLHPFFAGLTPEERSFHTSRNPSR
Chain of TRPM6 (Q9BX84 whole entry): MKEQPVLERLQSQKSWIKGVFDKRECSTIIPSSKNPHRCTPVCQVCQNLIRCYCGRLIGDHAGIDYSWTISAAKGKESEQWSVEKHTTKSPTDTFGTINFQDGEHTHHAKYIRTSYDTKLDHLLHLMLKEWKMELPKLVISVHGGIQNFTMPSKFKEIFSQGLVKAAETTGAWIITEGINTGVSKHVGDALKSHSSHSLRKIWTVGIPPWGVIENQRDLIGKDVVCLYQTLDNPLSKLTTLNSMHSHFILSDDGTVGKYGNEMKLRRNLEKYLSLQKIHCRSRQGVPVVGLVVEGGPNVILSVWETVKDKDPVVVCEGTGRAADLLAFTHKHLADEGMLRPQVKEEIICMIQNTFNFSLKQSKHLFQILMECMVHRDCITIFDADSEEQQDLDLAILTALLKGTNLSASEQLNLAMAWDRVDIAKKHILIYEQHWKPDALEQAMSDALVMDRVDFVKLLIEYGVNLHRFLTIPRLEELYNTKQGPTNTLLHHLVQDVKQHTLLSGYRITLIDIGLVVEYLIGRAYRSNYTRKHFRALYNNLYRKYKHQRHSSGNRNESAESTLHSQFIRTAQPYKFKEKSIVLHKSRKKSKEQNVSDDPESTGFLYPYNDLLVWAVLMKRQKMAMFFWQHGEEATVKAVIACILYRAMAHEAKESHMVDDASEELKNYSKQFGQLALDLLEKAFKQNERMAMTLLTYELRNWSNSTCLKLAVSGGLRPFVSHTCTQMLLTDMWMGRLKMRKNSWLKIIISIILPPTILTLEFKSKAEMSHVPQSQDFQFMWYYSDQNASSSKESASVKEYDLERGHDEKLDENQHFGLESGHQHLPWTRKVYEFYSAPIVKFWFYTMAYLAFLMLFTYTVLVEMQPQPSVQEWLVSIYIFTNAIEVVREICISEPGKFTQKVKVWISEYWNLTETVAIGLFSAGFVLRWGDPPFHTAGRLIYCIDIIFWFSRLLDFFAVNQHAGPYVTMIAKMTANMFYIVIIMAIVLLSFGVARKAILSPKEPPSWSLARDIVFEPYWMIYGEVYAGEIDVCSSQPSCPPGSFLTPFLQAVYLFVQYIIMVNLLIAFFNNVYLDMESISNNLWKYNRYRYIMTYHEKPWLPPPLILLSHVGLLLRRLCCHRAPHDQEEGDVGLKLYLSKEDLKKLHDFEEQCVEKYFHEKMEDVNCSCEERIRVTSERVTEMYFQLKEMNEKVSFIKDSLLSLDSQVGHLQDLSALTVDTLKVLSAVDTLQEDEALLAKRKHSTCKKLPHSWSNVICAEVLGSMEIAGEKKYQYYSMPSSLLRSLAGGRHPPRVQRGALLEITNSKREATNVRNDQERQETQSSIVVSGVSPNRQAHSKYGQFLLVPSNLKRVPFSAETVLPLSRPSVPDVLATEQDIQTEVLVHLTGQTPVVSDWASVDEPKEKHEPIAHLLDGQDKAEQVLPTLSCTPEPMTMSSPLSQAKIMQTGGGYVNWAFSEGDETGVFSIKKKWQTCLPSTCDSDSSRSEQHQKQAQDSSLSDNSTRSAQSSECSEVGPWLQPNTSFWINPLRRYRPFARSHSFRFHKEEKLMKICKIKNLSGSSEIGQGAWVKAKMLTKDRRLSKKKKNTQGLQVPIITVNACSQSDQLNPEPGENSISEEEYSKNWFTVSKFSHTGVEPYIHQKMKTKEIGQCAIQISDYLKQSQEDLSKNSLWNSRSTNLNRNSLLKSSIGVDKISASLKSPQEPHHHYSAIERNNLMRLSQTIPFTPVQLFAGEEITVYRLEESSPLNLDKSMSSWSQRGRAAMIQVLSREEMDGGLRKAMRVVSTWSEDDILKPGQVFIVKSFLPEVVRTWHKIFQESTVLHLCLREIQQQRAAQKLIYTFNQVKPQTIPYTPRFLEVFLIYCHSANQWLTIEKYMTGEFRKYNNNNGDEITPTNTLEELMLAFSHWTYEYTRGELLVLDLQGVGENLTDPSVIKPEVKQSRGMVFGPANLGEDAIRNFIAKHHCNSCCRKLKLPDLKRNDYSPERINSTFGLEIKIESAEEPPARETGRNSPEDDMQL

Cn1ncnc1[C@H]1c2n[nH]c(=O)c3cc(F)cc(c23)N[C@@H]1c1ccc(F)cc1 [Talazoparib]
percent of control binding at 10 µM (CLK3; [1]): 17%
percent of control binding at 10 µM (CDK4; [1]): 100%
percent of control binding at 10 µM (MYLK4; [1]): 90%
percent of control binding at 10 µM (PCTK3; [1]): 99%
percent of control binding at 10 µM (ADCK4; [1]): 100%
percent of control binding at 10 µM (HIPK1; [1]): 100%
percent of control binding at 10 µM (TRPM6; [1]): 100%
percent of control binding at 10 µM (FYN; [1]): 100%
percent of control binding at 10 µM (CAMK2D; [1]): 99%
percent of control binding at 10 µM (PRKG1; [1]): 57%

O=C(c1cc(Cc2n[nH]c(=O)c3ccccc23)ccc1F)N1CCN(C(=O)C2CC2)CC1 [Olaparib]
percent of control binding at 10 µM (CLK3; [2]): 89%
percent of control binding at 10 µM (CDK4; [2]): 85%
percent of control binding at 10 µM (MYLK4; [2]): 92%
percent of control binding at 10 µM (PCTK3; [2]): 100%
percent of control binding at 10 µM (ADCK4; [2]): 97%
percent of control binding at 10 µM (HIPK1; [2]): 87%
percent of control binding at 10 µM (TRPM6; [2]): 84%
percent of control binding at 10 µM (FYN; [2]): 72%
percent of control binding at 10 µM (CAMK2D; [2]): 99%
percent of control binding at 10 µM (PRKG1; [2]): 100%

CNCc1ccc(-c2[nH]c3cc(F)cc4c3c2CCNC4=O)cc1 [Rucaparib]
percent of control binding at 10 µM (CLK3; [3]): 75%
percent of control binding at 10 µM (CDK4; [3]): 94%
percent of control binding at 10 µM (MYLK4; [3]): 1.3%
percent of control binding at 10 µM (PCTK3; [3]): 69%
percent of control binding at 10 µM (ADCK4; [3]): 82%
percent of control binding at 10 µM (HIPK1; [3]): 5.4%
percent of control binding at 10 µM (TRPM6; [3]): 77%
percent of control binding at 10 µM (FYN; [3]): 100%
percent of control binding at 10 µM (CAMK2D; [3]): 89%
percent of control binding at 10 µM (PRKG1; [3]): 91%

NC(=O)c1cccc2cn(-c3ccc([C@@H]4CCCNC4)cc3)nc12 [Niraparib]
percent of control binding at 10 µM (CLK3; [4]): 100%
percent of control binding at 10 µM (CDK4; [4]): 100%
percent of control binding at 10 µM (MYLK4; [4]): 20%
percent of control binding at 10 µM (PCTK3; [4]): 70%
percent of control binding at 10 µM (ADCK4; [4]): 100%
percent of control binding at 10 µM (HIPK1; [4]): 0.95%
percent of control binding at 10 µM (TRPM6; [4]): 71%
percent of control binding at 10 µM (FYN; [4]): 88%
percent of control binding at 10 µM (CAMK2D; [4]): 99%
percent of control binding at 10 µM (PRKG1; [4]): 100%
